Results as given in patent US20120083489A1, “BIS-PYRIDYLPYRIDONES AS MELANIN-CONCENTRATING HORMONE RECEPTOR ANTAGONISTS” (priority 2009, published 2012).

target: T1, hMCHR1 (Homo sapiens, UniProt Q99705); experiment: MCHR1 pIC50 determination FLIPR assay; type: cell-based; conditions: HEK293 cells stably transfected with hMCHR1; MCH challenge at 4xEC50
T1 construct: expressed in transfected cells; host or cells: HEK293
Procedure: MCHR1 plC50 Determination FLIPR™Assay: HEK293 cells stably transfected with hMCHR1 were propagated as adherent cultures at 37° C. in a humidified incubator. Cells were split 1:8 at 90% confluency two times per week. New cell stocks were recovered from storage every two months. Cells were plated in black 384-well plates (Greiner) 24 hours prior to assay at 15,000 cells/well in 50 μL DMEM/F12, 10% FBS, 2 mM I-glutamine. Compounds to be profiled were prepared by making a stock solution at 3×10^−3M in 100% DMSO. The stock solutions were serially diluted 1:4 in 100% DMSO using JANUS (PerkinElmer) liquid handling instrument to allow for an 11 point curve in singlicate. At the time of the assay, the media was removed from the cell plate by aspiration, followed by the addition of 20 μL of loading buffer (Calcium 4 Kit, […]). Following 50 min incubation at 37° C., 10 μL of compound was added to the plates via the FLIPR™ instrument (Molecular Dynamics corporation). The plates were incubated at room temperature for 15 minutes along with an MCH peptide agonist challenge plate. On the FLIPR™, a basal response was collected over 10 seconds followed by the addition of 10 μL of MCH challenge concentration at 4×EC50. Data was collected over 4 minutes and subjected to a nonlinear regression analysis curve fitting program to generate plC50s.

T1 sequence (Q99705 whole entry): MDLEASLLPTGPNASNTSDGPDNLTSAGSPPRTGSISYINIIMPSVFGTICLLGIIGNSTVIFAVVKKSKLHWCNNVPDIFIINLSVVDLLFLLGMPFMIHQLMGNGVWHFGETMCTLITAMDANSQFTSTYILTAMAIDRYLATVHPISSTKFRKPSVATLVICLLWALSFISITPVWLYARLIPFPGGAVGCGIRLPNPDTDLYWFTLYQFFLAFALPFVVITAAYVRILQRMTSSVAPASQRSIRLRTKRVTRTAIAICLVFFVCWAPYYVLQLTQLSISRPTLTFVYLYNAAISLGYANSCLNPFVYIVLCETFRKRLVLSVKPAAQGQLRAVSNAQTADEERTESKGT

In order of falling IC50:
1. CCS(=O)(=O)NCCNc1ccc(-n2ccc(OCc3ccc(Cl)cn3)cc2=O)cn1 [Example 27]  90 nM
2. CS(=O)(=O)NCCNc1ccc(-n2ccc(OCc3ccc(Cl)cn3)cc2=O)cn1 [Example 20]  50 nM
3. CCN(CC)CCNc1ccc(-n2ccc(OCc3ccc(Cl)cn3)cc2=O)cn1 [Example 8]  25 nM
